{"source": "patent US5578477A", "about": "“Identification and characterization of inhibtors of protein farnesyltransferase” (Arch Development Corporation, priority 1993, dated 1996)", "key": {"[1]": {"target": "T1, yeast FTase (Saccharomyces cerevisiae, UniProt P22007+P29703)", "T1 construct": "FTase was purified from SP1 cells carrying plasmids pBH28 and YEpDPR1 as described herein; made in house; host or cells: Saccharomyces cerevisiae SP1 carrying YEpDPR1 and pBH28", "T1 sequence (P22007 1-431)": "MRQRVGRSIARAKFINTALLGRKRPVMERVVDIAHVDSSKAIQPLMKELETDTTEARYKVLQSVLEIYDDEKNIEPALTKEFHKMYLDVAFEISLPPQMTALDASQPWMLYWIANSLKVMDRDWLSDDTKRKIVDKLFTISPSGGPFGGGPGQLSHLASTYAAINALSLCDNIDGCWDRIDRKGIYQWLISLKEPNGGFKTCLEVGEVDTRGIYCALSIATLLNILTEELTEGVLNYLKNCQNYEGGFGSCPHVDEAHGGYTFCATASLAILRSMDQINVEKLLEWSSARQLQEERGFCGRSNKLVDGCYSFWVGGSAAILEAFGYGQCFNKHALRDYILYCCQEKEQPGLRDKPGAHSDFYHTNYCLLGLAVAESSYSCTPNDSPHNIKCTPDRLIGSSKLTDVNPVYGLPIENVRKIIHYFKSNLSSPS", "T1 sequence (P29703 1-316)": "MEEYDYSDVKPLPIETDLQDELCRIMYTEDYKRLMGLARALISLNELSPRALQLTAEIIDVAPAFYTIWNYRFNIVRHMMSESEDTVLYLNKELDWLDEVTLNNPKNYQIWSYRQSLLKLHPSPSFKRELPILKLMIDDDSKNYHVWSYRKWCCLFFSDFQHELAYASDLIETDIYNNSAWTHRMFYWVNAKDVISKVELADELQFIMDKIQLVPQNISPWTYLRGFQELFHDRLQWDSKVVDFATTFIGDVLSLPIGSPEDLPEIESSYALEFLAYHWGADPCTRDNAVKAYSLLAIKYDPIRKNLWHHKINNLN", "assay": "Prenyltransferase (FTase) assay with [3H]Fpp and GST-CIIS, purified yeast FTase", "format": "biochemical", "details": "for inhibition of FTase activity by salts: 100 mM salt", "description": "Prenyltransferase assays were performed essentially as described in Goodman et al., 1990; Finegold et al., 1991. Briefly, the reaction mixture (20 μl) contained 50 mM potassium phosphate, pH 7.4 (or 50 mM Tris/HCl, pH 8.0), 10 mMMgCl2, 5 mM DTT, 5 μM ZnCl2, 0.8-1.12 μM [^3 H] farnesyl pyrophosphate (Fpp) (20 Ci/mmol; New England Nuclear) or [^3 H] geranylgeranyl pyrophosphate (GGpp) (20 Ci/mmol; New England Nuclear, Boston, Mass.), 19 μg of GST-CIIS or 30 μg of GST-CIIL protein and enzymes. Incubation was carried out at 37° C., and the radioactivity incorporated was determined by spotting the reaction mixture onto a filter paper, treating with 10% trichloroacetic acid, followed by ethanol and acetone washing.\nReaction mixture (20 μl) for results shown in open squares contained 1.12 μM [^3 H] Fpp, 4.38 ng FTase, 19 μM GST-CIIS, 0.1 mM EDTA and the indicated concentration of MgCl2. Reaction mixtures (20 μl) for results shown in closed diamond contained 0.1 mM ZnCl2 in addition to the above. Incubation was carried out for 10 minutes at 37° C. and radioactivity incorporated was determined as described herein.\nSubstrate specificity of yeast FTase was investigated by comparing incorporation of Fpp or GGpp into two different substrate proteins, GST-CIIS (.quadrature.) and GST-CIIL (.circle-solid.). […] The reaction mixture (20 μl) contained 1.12 μM [^3 H] Fpp, 20 ng FTase, and the indicated concentrations of either GST-CIIS or GST-CIIL1 protein. Incubations were carried out for 10 minutes at 37° C. and the radioactivity incorporated was measured as described herein.\nDilution of the peptides was made in 10 mM DTT. Incubation was carried out for 10 minutes at 37° C. and the radioactivity incorporated was determined as described herein."}, "[2]": {"target": "T2, yeast PFT (Saccharomyces cerevisiae, UniProt P22007+P29703)", "T2 construct": "FTase was purified from SP1 cells carrying plasmids pBH28 and YEpDPR1 as described herein; made in house; host or cells: Saccharomyces cerevisiae SP1 carrying YEpDPR1 and pBH28", "T2 sequence (P22007 1-431)": "T1 sequence (P22007 1-431)", "T2 sequence (P29703 1-316)": "T1 sequence (P29703 1-316)", "assay": "Farnesyltransferase assay using RAS2CT1 protein and [3H]Fpp, without dithiothreitol", "format": "biochemical, S. cerevisiae", "description": "(§1) Farnesyltransferase assay. FTase from S. cerevisiae was purified from yeast cells overexpressing DPR1 and RAM2 as described herein. Rat brain FTase was partially purified by the method described by Reiss et al. PGGT purified from bovine brain was a gift of Drs. M. Gelb and K. Yokoyama (Univ. of Washington). FTase assays were carried out using RAS2CT1 protein and [^3 H]Fpp according to the method described herein except that Tris-HCl(pH8) was used instead of phosphate buffer. PGGT assays were carried out using GST-CIIL protein and [^3 H]GGpp as described herein except that Tris-HCl(pH7.4) was used instead of phosphate buffer. […] Incubation was carried out at 37° C.\nInhibition of Farnesyltransferase.\nTo investigate the mechanism of inhibition by UCF1-C, kinetic analyses were carried out. […] The same Km value was observed when the Linewaver-Burke plot was analyzed under different ras and UCF1-C concentrations (.quadrature.=0 μM, .tangle-solidup.=10 μM, and .box-solid.=20 μM) in the presence of a constant concentration of Fpp."}, "[3]": {"target": "T3, PGGT I (Bos taurus, UniProt P29702+Q5EAD5)", "T3 construct": "PGGT purified from bovine brain was a gift of Drs; M. Gelb and K. Yokoyama; tissue gift of Drs; M. Gelb and K. Yokoyama (Univ. of Washington); host or cells: bovine brain", "assay": "PGGT assay using GST-CIIL protein and [3H]GGpp", "format": "biochemical, bovine", "description": "as §1\nFIG. 6B compares the effect of UCF1-C on PGGT I and PFT."}}, "note": "pIC50, pKi: −log10 of the molar value. Peptide text beside a SMILES is read from it.", "data": [{"molecule": "CC(C)=CCC/C(C)=C/CC/C(C)=C/COP(=O)(O)OP(=O)(O)O", "note": "[Fpp, farnesyl pyrophosphate]", "values": [{"measurement": "Km", "setting": "[1]; secondary plots, substrates Fpp and GST-CIIS varied", "value": 8.1, "unit": "µM"}]}, {"molecule": "CSCC[C@H](NC(=O)[C@H](CC(C)C)NC(=O)[C@@H](NC(=O)[C@H](CS)NC(=O)[C@H](CS)NC(=O)[C@@H](NC(=O)[C@H](CO)NC(=O)[C@H](CC(N)=O)NC(=O)[C@H](CO)NC(=O)[C@@H](N)CC(N)=O)C(C)C)[C@@H](C)O)C(=O)O", "note": "[MG13, NSNSVCCTLM] (H-NSNSVCCTLM-OH)", "values": [{"measurement": "pIC50", "setting": "[1]", "value": 5.00}]}, {"molecule": "O=C(O)CN(CCN(CC(=O)O)CC(=O)O)CC(=O)O", "note": "[EDTA]", "values": [{"measurement": "effect of EDTA addition on FTase activity", "setting": "[1]", "value": "dramatic inhibition"}]}, {"molecule": "[Cl-].[K+]", "note": "[KCl]", "values": [{"measurement": "inhibition of FTase activity by salts", "setting": "[1]", "value": "Approximately 50%"}]}, {"molecule": "CCCC[C@@H](C)/C=C(C)/C=C(\\C)C(=O)NC1=C[C@@](O)(/C=C/C=C/C=C/C(=O)NC2=C(O)CCC2=O)[C@@H]2O[C@@H]2C1=O", "note": "[UCF1-C]", "values": [{"measurement": "mechanism of inhibition with respect to Fpp", "setting": "[2]; Lineweaver-Burk, changes Km for Fpp, not Vmax", "value": "competitive inhibitor"}, {"measurement": "mechanism of inhibition with respect to ras protein", "setting": "[2]; Lineweaver-Burk, same Km for RAS2, constant Fpp", "value": "non-competitive inhibitor"}, {"measurement": "pIC50", "setting": "[2]; RAS2CT1, [3H]Fpp, Tris-HCl pH 8, no dithiothreitol, 37° C.", "value": 5.30}, {"measurement": "pKi", "setting": "[2]; secondary plot of slopes against UCF1-C concentration, Fpp varied, constant ras", "value": 5.92}, {"measurement": "PGGT I activity still detectable", "setting": "[3]; 1 mM concentration", "value": "approximately 30%"}, {"measurement": "pIC50", "setting": "[3]; GST-CIIL, [3H]GGpp, Tris-HCl pH 7.4, read-out: IC50 for PGGT I inhibition", "value": 3.74}]}, {"molecule": "[Cl-].[Li+]", "note": "[LiCl]", "values": [{"measurement": "inhibition of FTase activity by salts", "setting": "[1]", "value": "Approximately 50%"}]}, {"molecule": "EHWSYGLRPG [LHRH]", "values": [{"measurement": "inhibition of FTase activity by peptide (in words)", "setting": "[1]; control peptides of the same size, unrelated sequences", "value": "little inhibition"}]}, {"molecule": "[Cl-].[Na+]", "note": "[NaCl]", "values": [{"measurement": "inhibition of FTase activity by salts", "setting": "[1]", "value": "Approximately 50%"}]}]}
